Data from patent US20220047609A1, “VAGINAL INSERTED ESTRADIOL PHARMACEUTICAL COMPOSITIONS AND METHODS” (THERAPEUTICSMD, INC., priority 2012, published 2022).

Legend:
[1] = tested on: dyspareunia; settings: cited from earlier work
[2] = Estradiol solubility in solubilizing agents (HPLC); assay type: physicochemical; settings: solubility of estradiol in the solubilizing agent, equilibrated three days
Method: Initial solubility was measured by dissolving micronized estradiol into various solubilizing agents until the estradiol was saturated (the estradiol/solubilizing agent equilibrated for three days), filtering the undissolved estradiol, and analyzing the resulting pharmaceutical composition for estradiol concentration by HPLC.

[3] = solubility of estradiol in the solubilizing agent; * denotes literature reference; cited from earlier work

OCCOc1ccc(/C(=C(/CCCl)c2ccccc2)c2ccccc2)cc1 [ospemifene]
vaginal discharge, frequency relative to the placebo group ([1]; 12-week study): more than 6 times
week until which statistically significant improvements of dyspareunia were not observed ([1]; human, in vivo): 12 week

CCOCCOCCO [TRANSCUTOL HP, 2-(2-ethoxyethoxy)ethanol]
Solubility [2]: 141 mg/g

CC(O)CO (stereo not shown) [Propylene Glycol]
Solubility (mg/g) [3]: 75* mg/g
